# Reference: patent publication US20220087996A1, “Histone acetylase p300 inhibitor and use thereof” (HINOVA PHARMACEUTICALS INC., priority 2018, published 2022)
# Where two headings read alike, the source gives them in different places.
# System: CWR22RV1 cells
# Assay: Compound in combination with CDK4/6 inhibitor palbociclib on proliferation of CWR22RV1 cells
# Type: cell-based, human
# Conditions: for IC50: Homo sapiens, read-out: IC50 against the activity of CWR22RV1 cells
# Experimental: The IC50 values (nM) of the compound according to the present invention, palbociclib, and the combination of the compound according to the present invention and palbociclib against CWR22RV1 cell proliferation were tested and calculated, and the detailed procedures were as follows:
# 1) CWR22RV1 cells were subcultured in cell culture medium, and the cells in good growth condition were seeded in a 96-well plate, 60 μL for each well, and the cell number in each well was 2000. The plate was incubated overnight in a 37° C., 5% CO2 cell incubator. 2) The drug was prepared as 10 mM stock solution with dimethyl sulfoxide (DMSO). Prior to use, the stock solution was diluted 3 times with DMSO, and then further diluted as 3-fold gradient to obtain 9 concentration gradients. Then, each concentration of compound was diluted 200 times with the culture solution (ensuring that the DMSO concentration in the culture system was 0.1%), and two replicate wells were set for each concentration. 20 μL of diluted compound solution was added to the cell culture well (with final concentrations of 10 μM, 3.3 μM, 1.1 μM . . . ). Palbociclib was diluted with culture medium to 500 nM, 150 nM, 50 nM, 5 nM, and 20 μL diluted compound solution was added to the corresponding cell culture wells (with a final concentration of 100 nM, 30 nM, 10 nM, 1 nM). The plate was gently shaken to mix. In addition, 3 negative control wells containing only cells and 3 blank control wells containing only culture medium were included (6 wells were each added 20 μL DMSO diluted 200 times with culture medium).
# (1) After culturing for 6 days, 10 μL CCK-8 was added to each well, and the plate was continually cultured in a 37° C., 5% CO2 cell incubator for 2.5 h. (2) The absorbance (OD value) was detected at 450 nm using a multifunctional microplate reader. (3) The data were analyzed by Dose-response-inhibition equation in the software GraphPad Prism6, and the IC50 value was obtained.
compound,measurement,setting,value
"CNC(=O)Nc1ccc2c(c1)CC[C@@]21OC(=O)N(CC(=O)N2C(C)CC[C@H]2c2cc(F)c(F)c(F)c2)C1=O (stereo in doubt) [Example 205, 1-((R)-3′-(2-((2S,5R)-2-(3,4,5-trifluorophenyl)-5-methylpyrrolidin-1-yl)-2-oxoethyl)-2′,4′-dioxo-2,3-dihydrospiro[indene-1,5′-oxazolidine]-5-yl)-3-methylurea]",IC50,"CWR22Rv1, in combination with 1 nM palbociclib",130 nM
same,IC50,"CWR22Rv1, in combination with 10 nM palbociclib",110 nM
same,IC50,"CWR22Rv1, in combination with 30 nM palbociclib",40 nM
same,IC50,"CWR22Rv1, in combination with 100 nM palbociclib",< 1 nM
same,IC50,"CWR22Rv1, single agent",120 nM
same,"inhibitory activity on CWR22RV1 cells when combined with palbociclib, versus either agent alone",combination with CDK4/6 inhibitor palbociclib,much higher
